Results from US10632106B2, “Methods of cancer treatment with 2-(1′H-Indole-3′-carbonyl)-thiazole-4-carboxylic acid methyl ester” (Ariagen, Inc., priority 2009, dated 2020).

Test: Effects of oral water administration on ITE dosed mice
Type: in vivo
Parameters: key to feces appearance: Moderate; Dry
Protocol: Oral injection of water was initiated at the same day i.p. administration of ITE was started. Daily oral gavage at 10 or 20 ml/kg was performed immediately following daily i.p. injection of ITE or DMSO continuously for the entire duration of the study. Both oral and i.p. injection were accidentally skipped at day 14 due to a mistake of the experimenter(s) and all of the other dosing were executed normally. Bodyweights (individual), food consumed (in group), feces weights (in group), and feces appearance (in group) were recorded every two days. Death of animal(s) and approximate cause of death etc. were also recorded.

[1] = ITE-L 200 mg/kg i.p. + Water-0, day 4
[2] = ITE-L 200 mg/kg i.p. + Water-0, day 6
[3] = ITE-L 200 mg/kg i.p. + Water-0, day 8
[4] = ITE-L 200 mg/kg i.p. + Water-0, day 10
[5] = ITE-L 200 mg/kg i.p. + Water-0, day 12
[6] = ITE-L 200 mg/kg i.p. + Water-0, day 14
[7] = ITE-L 200 mg/kg i.p. + Water-0, day 18 (line r16)
[8] = ITE-L 200 mg/kg i.p. + Water-0, day 18 (line r17)
[9] = ITE-L 200 mg/kg i.p. + Water-0, day 20
[10] = ITE-L 200 mg/kg i.p. + Water-0, day 22
[11] = ITE-L 200 mg/kg i.p. + Water-0, day 24
[12] = ITE-L 200 mg/kg i.p. + Water-0, day 26
[13] = ITE-L 200 mg/kg i.p. + Water-0, day 28
[14] = ITE-L 200 mg/kg i.p. + Water-0, day 30
[15] = ITE-L 200 mg/kg i.p. + Water-0, day 32
[16] = ITE-L 200 mg/kg i.p. + Water-0, day 34
[17] = ITE-L 200 mg/kg i.p. + Water-0, day 36
[18] = ITE-L 200 mg/kg i.p. + Water-H 20 ml/kg, day 4
[19] = ITE-L 200 mg/kg i.p. + Water-H 20 ml/kg, day 6
[20] = ITE-L 200 mg/kg i.p. + Water-H 20 ml/kg, day 8
[21] = ITE-L 200 mg/kg i.p. + Water-H 20 ml/kg, day 10
[22] = ITE-L 200 mg/kg i.p. + Water-H 20 ml/kg, day 12
[23] = ITE-L 200 mg/kg i.p. + Water-H 20 ml/kg, day 14
[24] = ITE-L 200 mg/kg i.p. + Water-H 20 ml/kg, day 18 (line r16)
[25] = ITE-L 200 mg/kg i.p. + Water-H 20 ml/kg, day 18 (line r17)
[26] = ITE-L 200 mg/kg i.p. + Water-H 20 ml/kg, day 20
[27] = ITE-L 200 mg/kg i.p. + Water-H 20 ml/kg, day 22
[28] = ITE-L 200 mg/kg i.p. + Water-H 20 ml/kg, day 24
[29] = ITE-L 200 mg/kg i.p. + Water-H 20 ml/kg, day 26
[30] = ITE-L 200 mg/kg i.p. + Water-H 20 ml/kg, day 28
[31] = ITE-L 200 mg/kg i.p. + Water-H 20 ml/kg, day 30
[32] = ITE-L 200 mg/kg i.p. + Water-H 20 ml/kg, day 32
[33] = ITE-L 200 mg/kg i.p. + Water-H 20 ml/kg, day 34
[34] = ITE-L 200 mg/kg i.p. + Water-H 20 ml/kg, day 36
[35] = ITE-L 200 mg/kg i.p. + Water-L 10 ml/kg, day 4
[36] = ITE-L 200 mg/kg i.p. + Water-L 10 ml/kg, day 6
[37] = ITE-L 200 mg/kg i.p. + Water-L 10 ml/kg, day 8
[38] = ITE-L 200 mg/kg i.p. + Water-L 10 ml/kg, day 10
[39] = ITE-L 200 mg/kg i.p. + Water-L 10 ml/kg, day 12
[40] = ITE-L 200 mg/kg i.p. + Water-L 10 ml/kg, day 14
[41] = ITE-L 200 mg/kg i.p. + Water-L 10 ml/kg, day 18 (line r16)
[42] = ITE-L 200 mg/kg i.p. + Water-L 10 ml/kg, day 18 (line r17)
[43] = ITE-L 200 mg/kg i.p. + Water-L 10 ml/kg, day 20
[44] = ITE-L 200 mg/kg i.p. + Water-L 10 ml/kg, day 22
[45] = ITE-L 200 mg/kg i.p. + Water-L 10 ml/kg, day 24
[46] = ITE-L 200 mg/kg i.p. + Water-L 10 ml/kg, day 26
[47] = ITE-L 200 mg/kg i.p. + Water-L 10 ml/kg, day 28
[48] = ITE-L 200 mg/kg i.p. + Water-L 10 ml/kg, day 30
[49] = ITE-L 200 mg/kg i.p. + Water-L 10 ml/kg, day 32
[50] = ITE-L 200 mg/kg i.p. + Water-L 10 ml/kg, day 34
[51] = ITE-L 200 mg/kg i.p. + Water-L 10 ml/kg, day 36

COC(=O)c1csc(C(=O)c2c[nH]c3ccccc23)n1 [ITE, 2-(1′H-indole-3′-carbonyl)-thiazole-4-carboxylic acid methyl ester]
feces appearance [1]: M
number of mice that died [1]: 0
feces appearance [2]: M
number of mice that died [2]: 0
feces appearance [3]: D
number of mice that died [3]: 0
feces appearance [4]: D
number of mice that died [4]: 0
feces appearance [5]: D
number of mice that died [5]: 0
feces appearance [6]: D
number of mice that died [6]: 0
feces appearance [7]: D
number of mice that died [7]: 0
feces appearance [8]: D
number of mice that died [8]: 0
feces appearance [9]: D
number of mice that died [9]: 0
feces appearance [10]: D
number of mice that died [10]: 0
feces appearance [11]: D
number of mice that died [11]: 0
feces appearance [12]: D
number of mice that died [12]: 0
feces appearance [13]: D
number of mice that died [13]: 1
feces appearance [14]: D
number of mice that died [14]: 1
feces appearance [15]: D
number of mice that died [15]: 1
feces appearance [16]: D
number of mice that died [16]: 1
feces appearance [17]: D
number of mice that died [17]: 1
feces appearance [18]: M
number of mice that died [18]: 0
feces appearance [19]: M
number of mice that died [19]: 0
feces appearance [20]: D
number of mice that died [20]: 0
feces appearance [21]: D
number of mice that died [21]: 0
feces appearance [22]: D
number of mice that died [22]: 0
feces appearance [23]: D
number of mice that died [23]: 0
feces appearance [24]: D
number of mice that died [24]: 0
feces appearance [25]: D
number of mice that died [25]: 0
feces appearance [26]: D
number of mice that died [26]: 0
feces appearance [27]: D
number of mice that died [27]: 0
feces appearance [28]: D
number of mice that died [28]: 0
feces appearance [29]: D
number of mice that died [29]: 0
feces appearance [30]: M
number of mice that died [30]: 0
feces appearance [31]: M
number of mice that died [31]: 0
feces appearance [32]: M
number of mice that died [32]: 0
feces appearance [33]: M
number of mice that died [33]: 0
feces appearance [34]: M
number of mice that died [34]: 0
feces appearance [35]: M
number of mice that died [35]: 0
feces appearance [36]: M
number of mice that died [36]: 0
feces appearance [37]: D
number of mice that died [37]: 0
feces appearance [38]: D
number of mice that died [38]: 0
feces appearance [39]: D
number of mice that died [39]: 0
feces appearance [40]: D
number of mice that died [40]: 0
feces appearance [41]: D
number of mice that died [41]: 0
feces appearance [42]: D
number of mice that died [42]: 0
feces appearance [43]: D
number of mice that died [43]: 0
feces appearance [44]: D
number of mice that died [44]: 0
feces appearance [45]: D
number of mice that died [45]: 0
feces appearance [46]: D
number of mice that died [46]: 0
feces appearance [47]: M
number of mice that died [47]: 0
feces appearance [48]: M
number of mice that died [48]: 0
feces appearance [49]: M
number of mice that died [49]: 0
feces appearance [50]: M
number of mice that died [50]: 0
feces appearance [51]: M
number of mice that died [51]: 0
